Active and inactive are the calls of the source. The calls are words filed in the database; no cut-off is given here.

Among the data in ChEMBL document CHEMBL2029326, “Alstiphyllanines I-O, ajmaline type alkaloids from Alstonia macrophylla showing vasorelaxant activity” (Bioorg Med Chem, 2012) are Activity values, retold here.

Holding throughout (assay type): functional, tissue-based
Assay [1] relates to Aorta. The experiment in a line: Vasorelaxant activity in Wistar rat endothelium-intact thoracic aortic ring assessed as inhibition of phenylephrine-induced contraction at 30 uM measured after 60 mins.
Assay [2] has as its system Aorta. Description: Vasorelaxant activity in Wistar rat endothelium-intact thoracic aortic ring assessed as inhibition of phenylephrine-induced contraction at 30 uM measured within 5 to 15 mins.
Assay [3] deals with Aorta. Description: Vasorelaxant activity in Wistar rat endothelium-intact thoracic aortic ring assessed as inhibition of phenylephrine-induced contraction at 100 uM measured after 60 mins.
For assay [4], the system named is Aorta. The experiment in a line: Vasorelaxant activity in Wistar rat endothelium-denuded thoracic aortic ring assessed as inhibition of phenylephrine-induced contraction measured after 60 mins.
The subject of assay [5] is Aorta. The experiment in a line: Vasorelaxant activity in Wistar rat endothelium-denuded thoracic aortic ring assessed as inhibition of phenylephrine-induced contraction measured after 60 mins in presence of 100 uM L-NMMA.
Assay [6] relates to Aorta. Description: Vasorelaxant activity in Wistar rat endothelium-denuded thoracic aortic ring assessed as inhibition of phenylephrine-induced contraction measured after 60 mins in presence of Bkca inhibitor TEA pretreated for 30 mins before contraction.
In assay [7] the test system is Aorta. Description: Vasorelaxant activity in Wistar rat endothelium-denuded thoracic aortic ring assessed as inhibition of KCl-induced contraction at 30 uM pretreated for 30 mins measured after 60 mins.
The test system of assay [8] is Aorta. The experiment in a line: Vasorelaxant activity in Wistar rat phenylephrine-prestimulated endothelium-denuded thoracic aortic ring assessed as inhibition of CaCl2-induced contraction added before PE-stimulation.

Turning to `C/C=C1\CN2[C@H]3C[C@@]45c6ccccc6N(C)[C@@H]4[C@@H]2C[C@@H]1[C@@]3(C(=O)OC)C5O` (some centres undefined), the outcome in assay [1] was Active.

For the molecule `C/C=C1\CN2[C@H]3C[C@@]45c6ccccc6N(C(=O)c6ccc(OC)c(OC)c6)[C@@H]4[C@@H]2C[C@@H]1C3(C(=O)OC)[C@H]5OC(C)=O` (relative stereo), the result in assay [1] was Active.

With `C/C=C1\CN2[C@H]3C[C@@]45c6ccccc6N(C(=O)c6ccccc6)[C@@H]4[C@@H]2C[C@@H]1C3(C(=O)OC)[C@H]5O` (some centres undefined), the result in assay [1] was Active.

Turning to `C/C=C1\CN2[C@H]3C[C@@]45c6ccccc6N(C)[C@@H]4[C@@H]2C[C@@H]1[C@@]3(C(=O)OC)C5OC(=O)c1cc(OC)c(OC)c(OC)c1` (some centres undefined), in assay [1], the result was Active.

As for `C/C=C1\CN2[C@H]3C[C@@]45c6ccccc6N(C)[C@@H]4[C@@H]2C[C@@H]1[C@@]3(C(=O)OC)C5OC(C)=O` (some centres undefined), the result in assay [1], in assay [2], in assay [3], in assay [4], in assay [7] and in assay [8] was Active. Further, in assay [5], the result was inactive. Further, the Activity entry in assay [6] was “Dose-dependent effect”.

As for `C/C=C1\C[N+]2([O-])[C@H]3C[C@@H]1[C@@]1(C(=O)OC)C(O)[C@]4(C[C@@H]12)c1ccccc1N(C)[C@H]34` (some centres undefined), the result in assay [1] was Active.

Take `C/C=C1\CN2[C@H]3C[C@@]45c6ccccc6N(C)[C@@H]4[C@@H]2C[C@@H]1[C@@]3(C(=O)OC)C5OC(=O)c1ccc(OC)c(OC)c1` (some centres undefined): the outcome in assay [1] was Active.

On to `C/C=C1\C[N+]2([O-])[C@H]3C[C@@H]1[C@]1(C(=O)OC)[C@@H](OC(C)=O)[C@]4(C[C@@H]12)c1ccccc1N(C)[C@H]34`, for which the result in assay [1] was Active.

`C/C=C1\CN2[C@H]3C[C@@]45c6ccccc6N(C(=O)c6cc(OC)c(OC)c(OC)c6)[C@@H]4[C@@H]2C[C@@H]1C3(C(=O)OC)[C@H]5OC(C)=O` (some centres undefined): the outcome in assay [1] was Active.

Consider `C/C=C1/CN2[C@H]3C[C@@]45c6ccccc6N(C(=O)c6cc(OC)c(OC)c(OC)c6)[C@@H]4[C@@H]2C[C@@H]1C3(C(=O)OC)[C@H]5O` (some centres undefined), for which the outcome in assay [1] was Active.

Consider `C/C=C1\CN2[C@H]3C[C@@]45c6ccccc6N(C(=O)c6cc(OC)c(OC)c(OC)c6)[C@@H]4[C@@H]2C[C@@H]1C3(C(=O)OC)[C@H]5O` (some centres undefined), for which the outcome in assay [1] was Active.

Consider `C/C=C1\CN2[C@H]3C[C@@]45c6ccccc6N(C(=O)c6ccc(OC)c(OC)c6)[C@@H]4[C@@H]2C[C@@H]1C3(C(=O)OC)[C@H]5O` (some centres undefined), for which the result in assay [1] was Active.
